Data from patent US20260116868A1 (Arcus Biosciences, Inc., priority 2023, published 2026).
Read-outs that look alike come from different tables or passages of the source.

Legend:
[1] = biological target: T1, Cbl-b (Homo sapiens, UniProt Q13191); experiment: Cbl-b probe displacement HTRF binding assay; conditions: 0.4 nM Cbl-b, 150 nM BODIPY probe
T1 construct: biotin (biotinylated protein)
Outline: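 Binding IC50 from four-parameter fit of HTRF signal loss, normalised to DMSO (0%) and no-protein (100%) wells. Biotinylated Cbl-b 0.4 nM was preincubated 60 min with compound (20-point 1:2 dilution) before 15 min with 150 nM BODIPY probe; Tb-streptavidin detection.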

[2] = system: Jurkat cells; experiment: IL-2 secretion assay in Jurkat cells activated with CD3/CD28 T Cell Activator; assay type: cell-based; conditions: Homo sapiens, 24 h, read-out: IL-2 Secretion (EC50)
Procedure: Certain compounds were also evaluated in an IL-2 secretion assay. On the day of the assay, a 16 point, 1:2 master serial dilution of each compound was prepared in Opti-MEM to span a final concentration range of 10 μM to 300 pM. Assays were set up in CORNING® tissue culture-treated 384-well microplates containing 60 nL of each dilution. Jurkat cells grown in RPMI-1640 supplemented with 10% FBS, 1% Glutamax, and 1% Pen/Strep were collected, resuspended in Opti-MEM. 50,000 cells/well and added to the compound plates. After a short spin (1200 rpm for 1 min), the plates were incubated at 37° C. for 1 hour. The cells were activated by adding 15 μL of IMMUNOCULT™ Human CD3/CD28 T Cell Activator (STEMCELL Technologies) diluted in Opti-MEM. After 24 h of incubation at 37° C., aliquots of culture supernatants were transferred to OptiPlate-384 (PerkinElmer) microplates. The level of IL-2 secretion in the supernatants was then determined using the IL-2 (human) AlphaLISA Detection Kit (PerkinElmer) according to the manufacturer's recommendations. The AlphaLISA signal was measured using an EnVision plate reader (PerkinElmer). EC50 values were determined by fitting the data to a standard 4-parameter logistic equation. See Table 7 for data for select compounds (IL-2 Secretion (EC50)).

[3] = Jurkat cells, CD3/CD28 T Cell Activator, IL-2 AlphaLISA

T1 sequence (Q13191 whole entry, species assumed): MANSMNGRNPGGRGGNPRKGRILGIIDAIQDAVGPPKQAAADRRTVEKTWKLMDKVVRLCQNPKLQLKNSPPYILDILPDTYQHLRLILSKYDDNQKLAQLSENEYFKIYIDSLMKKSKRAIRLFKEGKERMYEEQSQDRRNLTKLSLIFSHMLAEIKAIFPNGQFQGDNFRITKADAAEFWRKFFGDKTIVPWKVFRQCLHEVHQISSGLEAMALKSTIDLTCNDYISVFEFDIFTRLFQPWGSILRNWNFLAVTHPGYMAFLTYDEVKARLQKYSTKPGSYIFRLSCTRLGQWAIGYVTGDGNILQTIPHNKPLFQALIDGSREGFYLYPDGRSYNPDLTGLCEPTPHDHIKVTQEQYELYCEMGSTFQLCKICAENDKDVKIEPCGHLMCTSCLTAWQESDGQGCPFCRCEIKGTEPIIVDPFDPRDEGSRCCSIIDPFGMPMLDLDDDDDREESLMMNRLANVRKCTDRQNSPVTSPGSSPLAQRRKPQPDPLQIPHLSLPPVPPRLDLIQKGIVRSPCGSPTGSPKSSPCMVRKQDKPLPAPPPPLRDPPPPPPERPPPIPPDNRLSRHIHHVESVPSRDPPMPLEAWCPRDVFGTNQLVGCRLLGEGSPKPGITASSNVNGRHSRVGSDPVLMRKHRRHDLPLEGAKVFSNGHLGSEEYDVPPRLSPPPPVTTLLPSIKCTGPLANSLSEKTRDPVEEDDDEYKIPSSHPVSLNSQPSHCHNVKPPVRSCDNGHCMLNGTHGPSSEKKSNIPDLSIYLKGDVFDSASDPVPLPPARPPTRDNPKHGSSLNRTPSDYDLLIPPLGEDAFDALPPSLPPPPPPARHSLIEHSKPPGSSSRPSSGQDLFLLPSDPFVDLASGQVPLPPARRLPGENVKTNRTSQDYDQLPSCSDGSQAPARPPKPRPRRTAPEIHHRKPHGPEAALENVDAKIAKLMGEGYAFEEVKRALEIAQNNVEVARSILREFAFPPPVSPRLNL

| SMILES | IC50 [1] | EC50 [2, 3] | EC50 ([2]; Jurkat) |
| --- | --- | --- | --- |
| COCCNCc1cc(C(=O)Nc2cc(-c3ccc(C#N)cc3-c3ocnc3C)cc(C3CC3)n2)c(=O)n(C2CC2)c1 [Example 52, N-{4-[4-cyano-2-(4-methyl-1,3-oxazol-5-yl)phenyl]-6-cyclopropyl-2-pyridyl}-1-cyclopropyl-5-[(2-methoxyethylamino)methyl]-2-oxo-1,2-dihydronicotinamide] | 1000 to 5000 nM | > 5000 nM | – |
| Cn1cnnc1-c1cc(F)ccc1-c1cc(NC(=O)c2cc(-c3cccc(N)c3)cn(C3CC3)c2=O)nc(C2CC2)c1 [Example 28, N-{6-Cyclopropyl-4-[4-fluoro-2-(4-methyl-4H-1,2,4-triazol-3-yl)phenyl]-2-pyridyl}-5-(m-aminophenyl)-1-cyclopropyl-2-oxo-1,2-dihydronicotinamide] | 100 to 1000 nM | > 5000 nM | – |
| C[C@H]1CCCN(Cc2cc(C(=O)Nc3cc(-c4ccc(C#N)cc4-c4nncn4C)cc(C4CC4)n3)c(=O)n(C3CC3)c2)C1 [Example 1, N-{4-[4-cyano-2-(4-methyl-4H-1,2,4-triazol-3-yl)phenyl]-6-cyclopropyl-2-pyridyl}-5-{[(S)-3-methyl-1-piperidyl]methyl}-1-cyclopropyl-2-oxo-1,2-dihydronicotinamide] | < 100 nM | – | < 100 nM |
| Cn1cnnc1-c1cc(F)ccc1-c1cc(NC(=O)c2cc(CNC3(C)CCC3)cn(CC3CC3)c2=O)nc(C2CC2)c1 [Example 55] | < 100 nM | < 100 nM | – |
| CO[C@@H](C)CNCc1cc(C(=O)Nc2cc(-c3ccc(Cl)cc3C(=O)N3CC(F)(F)C3)cc(C3CC3)n2)c(=O)n(C)c1 [Example 105, N-[4-[4-chloro-2-(3,3-difluoroazetidine-1-carbonyl)phenyl]-6-cyclopropylpyridin-2-yl]-5-[[[(2S)-2-methoxypropyl]amino]methyl]-1-methyl-2-oxopyridine-3-carboxamide] | < 100 nM | < 100 nM | – |
| C[C@H]1CCCN(Cc2cc(C(=O)Nc3cc(-c4ccc(F)cc4-c4nncn4C)cc(C4CC4)n3)c(=O)n(CC3CC3)c2)C1 [Example 56, N-[6-cyclopropyl-4-[4-fluoro-2-(4-methyl-1,2,4-triazol-3-yl)phenyl]pyridin-2-yl]-1-(cyclopropylmethyl)-5-[[(3S)-3-methylpiperidin-1-yl]methyl]-2-oxopyridine-3-carboxamide] | < 100 nM | < 100 nM | – |
| COCCNCc1cc(C(=O)Nc2cc(-c3ccc(C#N)cc3-c3ncoc3C)cc(C3CC3)n2)c(=O)n(CC2CC2)c1 [Example 64, N-{4-[4-cyano-2-(5-methyl-1,3-oxazol-4-yl)phenyl]-6-cyclopropyl-2-pyridyl}-1-(cyclopropylmethyl)-5-[(2-methoxyethylamino)methyl]-2-oxo-1,2-dihydronicotinamide] | < 100 nM | 100 to 1000 nM | – |
| CO[C@H]1CCN(Cc2cc(C(=O)Nc3cc(-c4ccc(F)cc4-c4nncn4C)cc(C4CC4)n3)c(=O)n(C3CC3)c2)C1 [Example 16, N-{6-cyclopropyl-4-[4-fluoro-2-(4-methyl-4H-1,2,4-triazol-3-yl)phenyl]-2-pyridyl}-5-{[(S)-3-methoxy-1-pyrrolidinyl]methyl}-1-cyclopropyl-2-oxo-1,2-dihydronicotinamide] | < 100 nM | 100 to 1000 nM | – |
| Cc1ccnnc1-c1cc(F)ccc1-c1cc(NC(=O)c2cc(CN3CCO[C@H](C)C3)cn(C3CC3)c2=O)nc(C2CC2)c1 [Example 74, 1-cyclopropyl-N-[6-cyclopropyl-4-[4-fluoro-2-(4-methylpyridazin-3-yl)phenyl]pyridin-2-yl]-5-[[(2R)-2-methylmorpholin-4-yl]methyl]-2-oxopyridine-3-carboxamide] | 100 to 1000 nM | 1000 to 5000 nM | – |
| N#Cc1ccc(-c2cc(NC(=O)c3cc(CN4C[C@H]5CC[C@@H]4C5)cn(C4CC4)c3=O)nc(C3CC3)c2)c(-c2nncn2C(F)F)c1 [Example 11, N-(4-{4-cyano-2-[4-(difluoromethyl)-4H-1,2,4-triazol-3-yl]phenyl}-6-cyclopropyl-2-pyridyl)-5-({(1R,4S)-2-azabicyclo[2.2.1]hept-2-yl}methyl)-1-cyclopropyl-2-oxo-1,2-dihydronicotinamide] | < 100 nM | 100 to 1000 nM | – |
| Cn1cnnc1-c1cc(F)ccc1-c1cc(NC(=O)c2cc(CNCC3(F)CCC3)cn(C3CC3)c2=O)nc(C2CC2)c1 [Example 24, N-{6-cyclopropyl-4-[4-fluoro-2-(4-methyl-4H-1,2,4-triazol-3-yl)phenyl]-2-pyridyl}-1-cyclopropyl-5-({[(1-fluorocyclobutyl)methyl]amino}methyl)-2-oxo-1,2-dihydronicotinamide] | < 100 nM | < 100 nM | – |
| CN1C[C@@H]2C[C@H]1CN2Cc1cc(C(=O)Nc2cc(-c3ccc(C#N)cc3-c3nccn3C)cc(C3CC3)n2)c(=O)n(C2CC2)c1 [Example 38, N-{4-[4-cyano-2-(1-methyl-2-imidazolyl)phenyl]-6-cyclopropyl-2-pyridyl}-5-({(1S,4S)-5-methyl-2,5-diazabicyclo[2.2.1]hept-2-yl}methyl)-1-cyclopropyl-2-oxo-1,2-dihydronicotinamide] | 100 to 1000 nM | 1000 to 5000 nM | – |
| CO[C@@H](C)CNCc1cc(C(=O)Nc2cc(-c3ccc(F)cc3-c3nncn3C)cc(C3CC3)n2)c(=O)n(C2CC2)c1 [Example 17, N-{6-cyclopropyl-4-[4-fluoro-2-(4-methyl-4H-1,2,4-triazol-3-yl)phenyl]-2-pyridyl}-5-{[(S)-2-methoxypropylamino]methyl}-1-cyclopropyl-2-oxo-1,2-dihydronicotinamide] | < 100 nM | < 100 nM | – |
| CO[C@H]1CCCN(Cc2cc(C(=O)Nc3cc(-c4ccc(F)cc4-c4nncn4C)cc(C4CC4)n3)c(=O)n(C3CC3)c2)C1 [Example 25, N-{6-cyclopropyl-4-[4-fluoro-2-(4-methyl-4H-1,2,4-triazol-3-yl)phenyl]-2-pyridyl}-5-{[(S)-3-methoxy-1-piperidyl]methyl}-1-cyclopropyl-2-oxo-1,2-dihydronicotinamide] | < 100 nM | 100 to 1000 nM | – |
| Cn1cc(CNC[C@@H]2CCCO2)cc(C(=O)Nc2cc(-c3ccc(Cl)cc3C(=O)N3CC(F)(F)C3)cc(C3CC3)n2)c1=O [Example 107, N-[4-[4-chloro-2-(3,3-difluoroazetidine-1-carbonyl)phenyl]-6-cyclopropylpyridin-2-yl]-1-methyl-2-oxo-5-[[[(2S)-oxolan-2-yl]methylamino]methyl]pyridine-3-carboxamide] | < 100 nM | < 100 nM | – |
| C[C@H]1CCCN(Cc2cc(C(=O)Nc3cc(C#N)cc(-c4ccc(F)cc4C(=O)N4CC(F)C4)c3)c(=O)n(C3CC3)c2)C1 [Example 66, N-{5-cyano-4′-fluoro-2′-[(3-fluoro-1-azetidinyl)carbonyl]-3-biphenylyl}-5-{[(S)-3-methyl-1-piperidyl]methyl}-1-cyclopropyl-2-oxo-1,2-dihydronicotinamide] | 100 to 1000 nM | 1000 to 5000 nM | – |
| COCCNCc1cc(C(=O)Nc2cc(-c3ccc(C#N)cc3-c3nncn3C(F)F)cc(C3CC3)n2)c(=O)n(C2CC2)c1 [Example 14, N-(4-{4-cyano-2-[4-(difluoromethyl)-4H-1,2,4-triazol-3-yl]phenyl}-6-cyclopropyl-2-pyridyl)-1-cyclopropyl-5-[(2-methoxyethylamino)methyl]-2-oxo-1,2-dihydronicotinamide] | < 100 nM | < 100 nM | – |
| CC1(NCc2cc(C(=O)Nc3cc(-c4ccc(C#N)cc4-c4nncn4C(F)F)cc(C4CC4)n3)c(=O)n(C3CC3)c2)CCC1 [Example 10, N-(4-{4-cyano-2-[4-(difluoromethyl)-4H-1,2,4-triazol-3-yl]phenyl}-6-cyclopropyl-2-pyridyl)-1-cyclopropyl-5-[(1-methylcyclobutylamino)methyl]-2-oxo-1,2-dihydronicotinamide] | < 100 nM | < 100 nM | – |
| Cn1cnnc1-c1cc(F)ccc1-c1cc(NC(=O)c2cc(C3CCNC3)cn(C3CC3)c2=O)nc(C2CC2)c1 (stereo not shown) [Example 30, N-{6-Cyclopropyl-4-[4-fluoro-2-(4-methyl-4H-1,2,4-triazol-3-yl)phenyl]-2-pyridyl}-1-cyclopropyl-2-oxo-5-(3-pyrrolidinyl)-1,2-dihydronicotinamide] | 100 to 1000 nM | > 5000 nM | – |
| CC(C)CNCc1cc(C(=O)Nc2cc(-c3c(F)cc(Cl)cc3C(=O)N3CC(F)(F)C3)cc(C3CC3)n2)c(=O)n(C2CC2)c1 [Example 144, N-(4-{4-chloro-2-[(3,3-difluoro-1-azetidinyl)carbonyl]-6-fluorophenyl}-6-cyclopropyl-2-pyridyl)-1-cyclopropyl-5-[(isobutylamino)methyl]-2-oxo-1,2-dihydronicotinamide] | < 100 nM | – | < 100 nM |
